One series deals with APTT. The arrangement: method as in doi:10.5246/jcps.2018.09.062. The note with it: cited from earlier work.
The nature of series [1]: Pharmacokinetic study of nine absorbed components in rat serum after oral RMC extract (UHPLC-DAD).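 For all read-outs here: BHS model made by subcutaneous yeast suspension then two adrenaline injections with ice-water immersion, normal rats given saline instead, serum analytes quantified by UHPLC-DAD at 254 nm.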 The note with it: for AUC / Cmax / MRT / half-life / Tmax: male, Sprague-Dawley, rat, serum, po, 10 mL/kg, oral RMC extract 10 mL/kg (equal to 6 g/mL of RMC) once a day for 7 days, n = 6; for time after which the compound was not detected: BHS-RMC rats.
Protocol: Twenty-four male Sprague–Dawley rats (weighing 300 ± 20 g) were purchased from Animal Experiment Center, Guangdong Academy of Medical Sciences (Certificate no. SCXK2013-0002). The rats were kept in an environmentally controlled breeding room at a temperature of 22 ± 2 °C and a relative humidity of 55 ± 10% for 1 week before starting the experiments. They were fed with standard laboratory food and water. Both the animal’s care and the study protocol were conducted according to the National Institutes of Health Guide for the Care and Use of Laboratory Animals, and followed the guidelines of the Ethics Committee of Guangdong Pharmaceutical University.
The rats were randomly divided into following four groups: normal groups (Normal groups), BHS model groups (BHS groups), normal group administrated with RMC extraction (N-RMC group), BHS group administrated with RMC extraction (BHS-RMC group), respectively. N-RMC group and BHS-RMC group rats were respectively orally administrated with RMC extraction (equal to 6 g/mL of RMC) for continuous 7 days at a dose of 10 mL/kg, once a day, 1 hour after the sixth day of administration. The rats in BHS groups and BHS-RMC group were subcutaneously injected with 10% aqueous suspension of yeast (10 mL/kg) and then subcutaneously injected with 0.1 mg/mL adrenaline hydrochloride solution twice (at a dose of 0.8 mL/kg, 4 h apart) while body temperature remained relatively steady high. Those rats were soaked in ice-water for 5 min keeping their heads outside surface between two subcutaneous injections of adrenaline hydrochloride solution [39, 40]. At the same time, the normal groups and N-RMC group rats were injected with the same dose of saline (10 mL/kg) subcutaneously. All rats were fasted for 12 h but free for water before taking the blood. On the seventh day, 0.3 mL blood samples were collected from fossa orbitalis vein at the time point of 0.083, 0.25, 0.5, 0.75, 1, 2, 3, 4, 6, 8, 10, 12 and 24 h after oral administration. All blood samples were immediately centrifuged at 13,680 (× g) for 10 min at 4 °C and the serum samples were obtained and stored at −80 °C until analysis.
Firstly, 100 μL serum was spiked with 10 μL IS working solution to mix evenly, then 1 mL methanol was added to protein precipitation, and centrifuged at 1520 (× g) for 10 min at 4 °C. Secondly, the supernatant was collected with a clean tube carefully and filtered through 0.22 μm microporous filter head. Thirdly, the filtrate was evaporated to dryness under a stream of nitrogen at 40 °C. Finally, the residue was dissolved in 100 μL methanol and 10 μL of aliquot was injected into UHPLC-DAD system for analysis.
The chromatography experiment was carried out using UPLC system (Thermo Fisher Scientific, USA). Chromatographic conditions were according to the paper published by our research group [37]. Column: Acquity UPLC® BEH Shield RP18 Column (2.1 mm × 100 mm, 1.7 μm, Waters, USA). The column temperature was maintained at 30 °C. Mobile phase: Acetonitrile (A) and 0.1% (v/v) formic acid in water (B). The gradient conditions: 0–10 min, 5–15% A; 10–20 min, 15–35% A; 20–30 min, 35–95% A; 30–32 min, 95% A. The samples were kept at 4 °C in the auto-sampler. Flow rate and sample size, 0.2 mL/min and 2 μL; column temperature and detection wavelength, 30 °C and 254 nm.
The concentrations of nine components of all samples were processed by PKSolver pharmacokinetics software. Statistical comparisons among groups were performed with GraphPad Prism 8 using a One-Way ANOVA analysis. Data expressed as mean ± SD and a p value ≤ 0.05 was considered to be statistically significant.
The subject of a further series is F2. In words: F2 expression in TNF-α induced HUVECs (ELISA, RT-qPCR). The note with it: HUVECs + 25 ng/mL TNF-α, 8 h, versus model group; for F2 protein expression: paeonol 50, paeoniflorin 500, quercetin 1, oxypaeoniflorin 500 μg/mL. It is filed as cell-based, Human. As for the experimental part: (§1) After three or four passages, the HUVECs were digested with 0.25% trypsin and seeded in a 6-well plate with a density of 1 × 10^5 cells/mL for ELISA analysis and RT-qPCR. […] Afterwards, take the supernatant and measure according to the ELISA kit, and detect the OD value at the wavelength of 450. […] ChamQTMUniversalSYBR qPCR Master Mix (Vazyme Biotech Co., Ltd, Q711-02) was performed on a Real-time PCR System.
(In general: An ELISA detects its analyte on a solid surface through an enzyme-linked reagent.)

The subject of another series is F7. In words: F7 expression in TNF-α induced HUVECs (ELISA, RT-qPCR). It is filed as cell-based, Human. The note with it: HUVECs + 25 ng/mL TNF-α, 8 h, versus model group; for F7 protein expression: paeonol 50, paeoniflorin 500, quercetin 1, oxypaeoniflorin 500 μg/mL. As to the method:
as §1

For the next series, the system named is F10. In words: F10 expression in TNF-α induced HUVECs (ELISA, RT-qPCR). The note with it: HUVECs + 25 ng/mL TNF-α, 8 h; paeonol 50, paeoniflorin 500, quercetin 1, oxypaeoniflorin 500 μg/mL; versus model group. The format is cell-based, Human. As for the experimental part:
as §1

For another series, the system named is MAPK10. In words: MAPK10 mRNA expression in TNF-α induced HUVECs (RT-qPCR). The format is cell-based, Human. The note with it: HUVECs + 25 ng/mL TNF-α, 8 h, paeonol 50, paeoniflorin 500, quercetin 1, oxypaeoniflorin 500 μg/mL, versus model group. As to the method: as §1
Background: Real-time PCR tracks product formation cycle by cycle.

In another series the test system is APTT, PT and TT. In words: Coagulation test (APTT, PT, TT) in rabbit plasma. The note with it: for APTT: 10 μL solution, paeoniflorin 250, oxypaeoniflorin 500, quercetin 1, paeonol 50 μg/mL, blank 13.63 ± 0.49, n = 3; for effect on PT compared with blank / effect on TT compared with blank / effect on prolonging APTT compared with blank: in words.
Another series relates to AKT. In words: AKT expression in TNF-α induced HUVECs (RT-qPCR). The format is cell-based, Human. The note with it: HUVECs + 25 ng/mL TNF-α, 8 h, oxypaeoniflorin 500 μg/mL, versus model group. As for the experimental part: as §1
The mark [2] stands for this setting: BHS-RMC versus N-RMC rats, oral RMC extract.
Where [3] appears, read: T1/2, BHS-RMC group (BHS model rats).
Setting [4] is: T1/2, N-RMC group (normal rats).

Here are results for nine compounds from publication PMC9476706, “Integrating pharmacokinetics and network analysis to investigate the mechanism of Moutan Cortex in blood-heat and blood stasis syndrome” (Chinese Medicine, 2022).

Protocol for APTT, PT and TT: New Zealand white rabbits, after being fasted but with free access to water for 8 h, were anesthetized by intraperitoneal injection of 10.0% chloral hydrate at 0.3 mL/100 g. The blood collected from the carotid artery was anticoagulated with 3.8% sodium citrate (blood and dosage volume ratio of 9:1), and transferred to a vacuum blood-collection tube, which was then slowly inverted and mixed for 3 to 4 times, and centrifuged at 860 (× g) for 10 min to obtain the supernatant. […] Whereafter, 10 μL of monomer solution was added under the kit instructions to determine APTT, PT and TT using coagulation method.

Usually AUC stands for concentration integrated over time. Read a low AUC as less exposure. As usually defined, the Cmax is the highest concentration seen after dosing. In general, MRT refers to the average time that molecules of a dose stay in the body. What is called half-life is the time in which the quantity being followed falls by half. A low value points to rapid decline. One may read the Tmax as the time from dosing to the highest level. For `Cc1oc2c(O)cccc2c(=O)c1O` [3,8-Dihydroxy-2-methylchromone, 3,8-dihydroxy-2-methylchromone], the “effect on APTT” value in the series with APTT is given as “significantly extend”. Besides, in series [1] (setting [2]), the “Cmax increase in BHS-RMC over N-RMC” value was 16%. Further, in series [1] (BHS-RMC group (BHS model rats)), the area under the curve (AUC) was 757 ± 8.72 µg·h/mL, the highest level (Cmax) was 134 ± 3.26 µg/mL, the MRT was found to be 14.1 ± 1.07 h and the time to peak (Tmax) worked out at 0.75 h. For the same compound, in series [1] (N-RMC group (normal rats)), the exposure (AUC) amounted to 660 ± 29.9 µg·h/mL, the Cmax worked out at 116 ± 2.12 µg/mL, the MRT worked out at 6.9 ± 0.68 h and the Tmax stood at 0.75 h. In addition, in series [1] (setting [3]), the half-life is 19 ± 1.78 h. Moreover, the half-life in series [1] (setting [4]) was 4.73 ± 0.29 h.
For `O=Cc1ccc(CO)o1` [5-HMF, 5-hydroxymethylfurfural], in series [1] (BHS-RMC group (BHS model rats)), the AUC amounted to 741 ± 20.3 µg·h/mL, the Cmax worked out at 111 ± 7.25 µg/mL, the MRT was 7.47 ± 0.48 h and the Tmax was 0.75 h. For the same compound, in series [1] (N-RMC group (normal rats)), the AUC worked out at 1564 ± 4.63 µg·h/mL, the Cmax is 413.2 ± 2.01 µg/mL, the MRT was found to be 4.55 ± 0.03 h and the Tmax came to 3 h. Moreover, in series [1] (setting [3]), the half-life is 7.33 ± 2.1 h. In series [1] (setting [4]), this compound had a half-life of 3.2 ± 0.03 h.
Consider `O=C(O)c1ccccc1` [Benzoic acid, benzoic acid], for which the “Cmax increase in BHS-RMC over N-RMC” value in series [1] (setting [2]) is reported as 49%. In series [1] (BHS-RMC group (BHS model rats)), the AUC amounted to 2320 ± 71.3 µg·h/mL, the peak level (Cmax) was 213 ± 5.26 µg/mL, the MRT turned out to be 13.3 ± 0.79 h and the Tmax was 3 h. In addition, in series [1] (N-RMC group (normal rats)), the AUC turned out to be 1880 ± 217 µg·h/mL, the Cmax was 144 ± 4.48 µg/mL, the MRT worked out at 17 ± 2.76 h and the Tmax is 4 h.
With `O=C(O)c1cc(O)c(O)c(O)c1` [Gallic acid, gallic acid], in series [1] (setting [2]), the “AUC increase in BHS-RMC over N-RMC” value stood at 5% and the “Cmax increase in BHS-RMC over N-RMC” value was found to be 42%. For the same compound, in series [1] (BHS-RMC group (BHS model rats)), the AUC came out at 1070 ± 72.9 µg·h/mL, the Cmax was determined as 180 ± 11.1 µg/mL, the MRT was found to be 10 ± 0.96 h and the Tmax was determined as 1 h. In series [1] (N-RMC group (normal rats)), the AUC amounted to 1020 ± 26.6 µg·h/mL, the Cmax was 127 ± 2.9 µg/mL and the MRT is 17.3 ± 0.8 h. The half-life in series [1] (setting [3]) was 6.33 ± 0.45 h. Also, the half-life in series [1] (setting [4]) was 10.8 ± 0.87 h.
As to `COC(=O)c1ccc(O)cc1` [Methylparaben, methyl paraben], in series [1] (BHS-RMC group (BHS model rats)), the exposure (AUC) was determined as 39.9 ± 1.34 µg·h/mL, the Cmax was found to be 2.16 ± 0.11 µg/mL, the MRT was determined as 27.1 ± 1.16 h and the Tmax was found to be 1 h. In addition, in series [1] (N-RMC group (normal rats)), the AUC turned out to be 22.8 ± 1.34 µg·h/mL, the Cmax turned out to be 6.35 ± 0.53 µg/mL, the MRT amounted to 7.91 ± 0.56 h and the Tmax came to 0.75 h. In addition, the half-life in series [1] (setting [3]) was 17.9 ± 0.84 h. In series [1] (setting [4]), this compound showed a half-life of 4.93 ± 0.23 h.
Turning to `C[C@@]12C[C@@]3(O)O[C@@H](O1)[C@]1(COC(=O)c4ccccc4)[C@H]3C[C@@]12O[C@@H]1O[C@H](CO)[C@@H](O)[C@H](O)[C@H]1O` [Paeoniflorin, paeoniflorin], the F2 protein expression result in the series on F2 is “significantly declined”. For the same compound, in the series on F7, the F7 protein expression result is “significantly declined”. Moreover, in the series on F10, the F10 protein expression entry is on record as “significantly declined”. The “MAPK10 mRNA expression” value in the series on MAPK10 is listed as “significant decrease”. Moreover, in the series with APTT, PT and TT, the APTT turned out to be 15.07 ± 0.06 s, the “effect on PT compared with blank” value is recorded as “no significant difference”, the “effect on TT compared with blank” value is listed as “tendency of prolonging” and the “effect on prolonging APTT compared with blank” value was “significant effect”. Also, in series [1] (oral RMC extract), the “time after which the compound was not detected” value turned out to be 12 h. Further, in series [1] (BHS-RMC group (BHS model rats)), the AUC worked out at 298 ± 7.6 µg·h/mL, the concentration peaked (Cmax) at 84.2 ± 1.99 µg/mL, the MRT was 5.06 ± 0.22 h and the Tmax was 0.75 h. For the same compound, in series [1] (N-RMC group (normal rats)), the AUC amounted to 1450 ± 62.3 µg·h/mL, the highest level (Cmax) was 201.6 ± 1.86 µg/mL and the mean residence time MRT came out at 15.5 ± 0.94 h. The same compound showed a half-life in series [1] (setting [3]) of 3.6 ± 0.31 h. Moreover, in series [1] (setting [4]), the half-life is 9.75 ± 0.47 h.
Consider `COc1ccc(C(C)=O)c(O)c1` [Paeonol, paeonol], for which, in the series on F2 (paeonol 50 μg/mL, RT-qPCR), the “F2 mRNA expression” value is given as “no effects”. In addition, the F2 protein expression result in the series with F2 is “significantly declined”. The “F7 mRNA expression” value with F7 (paeonol 50 μg/mL, RT-qPCR) is on record as “no effects”. Also, in the series with F7, the F7 protein expression entry was “significantly declined”. Further, in the series on F10, the F10 protein expression result is “significantly declined”. In addition, the “MAPK10 mRNA expression” value with MAPK10 was “significant decrease”. In the series with APTT, PT and TT, the APTT came out at 17.23 ± 0.35 s, the “effect on PT compared with blank” value is recorded as “no significant difference”, the “effect on TT compared with blank” value is listed as “tendency of prolonging” and the “effect on prolonging APTT compared with blank” value was “significant effect”. For the same compound, the “time after which the compound was not detected” value in series [1] (oral RMC extract) is given as 8 h. In series [1] (BHS-RMC group (BHS model rats)), the AUC stood at 45.5 ± 0.83 µg·h/mL, the Cmax was 10.4 ± 0.23 µg/mL, the MRT amounted to 4.63 ± 0.12 h and the time of peak concentration (Tmax) came out at 0.75 h. Moreover, in series [1] (N-RMC group (normal rats)), the AUC is 107 ± 1.23 µg·h/mL, the Cmax is 11.8 ± 0.13 µg/mL, the MRT came to 12.1 ± 0.17 h and the Tmax is 0.75 h. Further, the half-life in series [1] (setting [3]) is 4.37 ± 0.15 h. In series [1] (setting [4]), this compound gave a half-life of 7.84 ± 0.08 h. The “shape of plasma concentration-time profile” value in series [1] (oral RMC extract, both normal and model rats) was “bimodal (double peak) phenomenon”.
For `O=c1c(O)c(-c2ccc(O)c(O)c2)oc2cc(O)cc(O)c12` [Quercetin, quercetin], in the series on F2, the F2 protein expression entry is reported as “significantly declined”. Further, the F7 protein expression entry with F7 was “significantly declined”. Also, the F10 protein expression entry with F10 was “significantly declined”. The “MAPK10 mRNA expression” value with MAPK10 was “significant decrease”. Further, in the series on APTT, PT and TT, the APTT came out at 15.2 ± 0.387 s, the “effect on PT compared with blank” value was “no significant difference”, the “effect on TT compared with blank” value was “tendency of prolonging” and the “effect on prolonging APTT compared with blank” value is given as “significant effect”. Besides, the “Cmax increase in BHS-RMC over N-RMC” value in series [1] (setting [2]) was determined as 15%. In addition, in series [1] (BHS-RMC group (BHS model rats)), the AUC is 10000 µg·h/mL, the concentration peaked (Cmax) at 739.9 ± 4.17 µg/mL, the MRT is 20.4 ± 0.66 h and the Tmax was found to be 4 h. For the same compound, in series [1] (N-RMC group (normal rats)), the AUC stood at 7340 ± 166 µg·h/mL, the Cmax came out at 643 ± 19.8 µg/mL, the MRT was 16.6 ± 0.56 h and the Tmax was determined as 4 h. The compound also gave a half-life in series [1] (setting [3]) of 15.5 ± 0.54 h. This compound also showed a half-life in series [1] (setting [4]) of 9.97 ± 0.35 h.
oxypaeoniflorin: the F7 protein expression result with F7 is listed as “significantly declined”. In addition, the F10 protein expression result in the series with F10 is given as “significantly declined”. Besides, in the series on MAPK10, the “MAPK10 mRNA expression” value is recorded as “significant decrease”. The “expression of AKT” value in the series with AKT is on record as “could decrease”. Moreover, in the series with APTT, PT and TT, the APTT is recorded as 15.63 ± 0.45 s, the “effect on PT compared with blank” value is reported as “no significant difference”, the “effect on TT compared with blank” value was “tendency of prolonging” and the “effect on prolonging APTT compared with blank” value was “significant effect”.
